Patent publication US20260232752A1, “COMBINATION THERAPY METHODS, COMPOSITIONS AND KITS” (Accure Therapeutics, S.L., priority 2019, published 2026)

Columns and labels:
[1] = test system: human neuroblastoma cell line SH-SY5Y; test: Neuroprotection against H2O2 oxidative stress, MTT assay; format: cell-based; conditions: 1 hour preincubation at 0.03-40 μM, then H2O2 15 μM 30 minutes
Procedure: The objective of the study was to test the possible synergistic effect of the BN201-monomethylfumarate salt in a neuroprotective assay. Thus, BN201-monomethylfumarate salt obtained as indicated in example 5, was tested for its ability to protect the human neuroblastoma cell line SH-SY5Y against death induced by oxidative stress (i.e., hydrogen peroxide (H202)) using an MTT (3-(4,5-dimethylthiazol-2-yl)-2,5-diphenyltetrazolium bromide) cell proliferation assay.
SH-SY5Y cells were cultivated in 50% Eagle's minimum essential medium (EMEM), 50% Ham's F12 Nutrient Mixture, 10% fetal bovine serum (FBS), 2 mM L-Glu, and 1% penicillin/streptomycin. All of the cell cultures were maintained in a humidified incubator at 5% CO2 and at 37° C. SH-SY5Y cells were preincubated for 1 hour with BN201 alone, monomethyl fumarate alone, or BN201-monomethylfumarate salt at various concentrations (n=5; concentrations: 0.03 μM, 0.1 μM, 0.3 μM, 0.5 μM, 1 μM, 3 μM, 5 μM, 10 μM, 20 μM, 40 μM) and then H2O2 (15 μM) was added to induce stress. Preincubation with sodium pyruvate (10 mM) was used as a positive control. After 30 minutes of H2O2 incubation, the medium was changed and thiazolyl blue tetrazolium bromide (MTT; Sigma Aldrich; stock concentration 10 mg/ml) was added to each well at the final concentration of 0.5 mg/ml. After 2 hours of MTT incubation the cell medium was removed, and cells were resuspended in pure dimethyl sulfoxide (DMSO). Cell viability was determined by reading the absorbance at 570 nm. Each experiment was performed in quintuplicate.

[2] = test system: EAE in C57BL6 mice immunized with MOG35-55; test: Example 4: BN201 and STAT3 inhibitor combination, chronic phase of EAE; format: in vivo, mouse; conditions: BN201 50 mg/kg i.p. alone (optimal), from day 34 to day 54
Procedure: Effect during the chronic phase of the disease in the animal model of Multiple Sclerosis (i.e., EAE in C57BL6 mice immunized with MOG35-55)
Efficacy and safety of combination therapy with optimal doses of BN201 (50 mg/kg) and S31-201 (5 mg/kg) in the progression of chronic EAE in mice.
Starting the chronic phase of the disease (by day 34) mice were administered: • the STAT3 inhibitor S31-201 (group A, 7 mice), • BN201 (group B, 6 mice), or • a combination thereof (group C, 6 mice) once a day for six days per week at optimal dosages (5 mg/kg for S31-201, 50 mg/kg for BN201).
S31-201 and BN201 were administered via i.p. injection in a saline vehicle at a volume of 5 mL/kg. Control mice received vehicle only via both oral and i.p. injection (group D, 6 mice) or nothing at all (group E, 2 mice). Mice were treated from day 34 (chronic EAE stage) until the end of the experiment on day 54.
The combination of BN201 and the STAT3-inhibitor S31-201 was evaluated for its effect during the chronic phase of the disease in the animal model of Multiple Sclerosis (i.e., EAE in C57BL6 mice immunized with MOG35-55). The objective of the study was to evaluate the efficacy and safety of combination therapy with optimal doses of BN201 (50 mg/kg) and 531-201 (5 mg/kg) in the progression of chronic EAE in mice. […]

CC(C)CN(CC(=O)N(CCCN1CCCC1=O)CC(N)=O)C(=O)CNCCc1ccccc1F [BN201, [N-(2-(2′-Fluorophenyl)ethyl)glycyl]-[N-(2-methylpropyl)glycyl]-N-[3-(2′-oxopyrrolidinyl)-propyl]glycinamide]
cell viability as a percentage compared to the control (protection from death induced by oxidative stress) [1]: partially rescued neurons from death induced by oxidative stress | course of EAE in chronic phase (clinical score) [2]: not efficacious
